Data reported in US20050034187A1, “Modified tet-inducible system for regulation of gene expression in plants” (priority 2000, published 2005).

Experiments:
[1] = system: wild type tet Receptor and TripleX-driven GUS gene (pAC489/pAC499 double transformants); assay: Seed germination test: induction of GUS gene in seedlings; format: in vivo, tobacco; conditions: concentration curve, FIG. 19
[2] = system: tet-inducible luciferase cassettes with (OCS)3MAS/nTR; assay: Leaf disk induction assay, luciferase; format: cell-based, tobacco; conditions: for maximum magnitude of induction (luciferase): FIGS. 14 and 15; for highest induction in some lines (luciferase) / average induction of the reporter (luciferase): doxycycline 5 mg/l
Protocol: FIG. 9—Doxycycline-Mediated Induction of Expression of Luciferase from (OCS)3triplexmin Promoter in Plants is Stronger than TripleX. This experiment was performed in order to test the performance of OCS elements-modified TripleX promoter on the whole plant level. Transgenic tobacco plants carrying (OCS)3MAS/nTR, NPTII, and either of (OCS)3TripleXmin/LUC or TripleX/LUC cassettes were tested in leaf disk induction assays: 5-10 mm leaf disks were excised from plants and put into six- or twelve-well plates with liquid MS medium and with or without Doxy 5 mg/l at 5 mg/l. Luciferase assays were performed with the tissues 5 days later. Each bar represents one sample; numbers above the bars represent magnitude of induction.
FIG. 10—Doxycycline-Mediated Induction of Expression of Luci erase from (OCS)3triplexmin Promoter in Plants is Stronger than TripleX. […] 5-10 mm leaf disks and pieces of roots were excised from plants and put into six- or twelve-well plates with liquid MS medium and with or without Doxy 5 mg/l at 5 mg/l. Luciferase assays were performed with the tissues 5 days later. Each bar represents an average of three samples; numbers above the bars represent magnitude of induction.
FIG. 13—Doxycycline-Mediated Induction of Expression of Luciferase in Inducible Cassettes With or Without One or More MAR Elements. This experiment was performed in order to test the effect of placing inducible luciferase gene between one or more MAR elements. Tobacco plants carrying TripleX/LUC cassette placed between one or more MAR elements, (OCS)3MAS/nTR and NPTII genes (pACAG073 and pACAG081) as well as the reference cassette without one or more MAR elements (pACAG085) were used as donors of 5-10 mm leaf disks which were cultivated in six- or twelve-well plates with liquid MS medium with or without doxycycline 5 mg/l for five days. Samples were assayed for luciferase activity. Each bar represents one sample; numbers above the bars represent magnitude of induction.
FIG. 14—Doxycycline-Mediated Induction of Luciferase in Leaves Carrying Inducible Cassettes With or Without One or More MAR Elements. This experiment was performed in order to test the effect of placing inducible luciferase gene between one or more MAR elements. […] 5-10 mm leaf disks and pieces of roots were excised from plants and put into six- or twelve-well plates with liquid MS medium and with or without Doxy 5 mg/l at 5 mg/l. Luciferase assays were performed with the tissues 5 days later. Each bar represents an average of three samples; numbers above the bars represent magnitude of induction.
Evaluation of tet inducible system in plant tissues. 5-10 mm leaf disks were excised from plants and put into six- or twelve-well plates with liquid MS medium and with or without a tet analog at 5 mg/l. When transgenic plants carried cassettes for induction of herbicide resistance, the medium was supplemented with PURSUIT® at concentration of 1 μM or higher. These plates were cultivated in dark on shaker at 90 rpm for 5 days (three weeks for analysis of induction of herbicide resistance) and then used in assays or evaluated visually. Another test was designed for evaluation of inducible herbicide resistance. In this test leaf disks were placed on MS agar supplemented with. 1 mg/l of BAP and PURSUIT® at concentration of 1 μM or higher either alone or with a tet analog at 5 mg/l. Three weeks later the induction of regeneration from these disks was evaluated.

[3] = system: tobacco line pACAG029#4; conditions: in vivo
Source text: FIG. 36—tet-Inducible Herbicide Resistance: Spray Test of F1 Seedlings and Seeds of Tobacco Line pACAG029#4. Seedlings at different stages of development (1 and 2 weeks old), produced by germination in 2.5″×2.5″ pots with Metro mix, were used for assessing tet inducible herbicide resistance in a post-emergence test. For pre-emergency application, seeds were sown on the Metro mix right before PURSUIT®, application. 15-20 seeds were placed in each pot. Pots were sprayed with doxycycline premixed with PURSUIT®, each at different rates. The test was evaluated two weeks after the spray. Each pot in the figure represents a unique experiment in terms of the combination of chemical rates and the stage of seedling development. As shown in the figure, the rate of herbicide resistance directly corresponded with increased doxycycline application rates.
Induction of herbicide resistance in plants growing in soil has been investigated. Transgenic F1 heterozygous tobacco seeds of the line pACAG029#4 (this line has been shown elsewhere herein to provide the best repression/induction in tissue culture tests) ere used for the spray test. Seedlings at different stages of development (1 and 2 weeks old) produced by germination of seeds in 2.5″×2.5″ pots with Metro mix were used for post-emergence test. For pre-emergency application, seeds were sown on the Metro mix right before the application of herbicide. […]

SMILES: C[C@H]1c2cccc(O)c2C(=O)C2=C(O)[C@]3(O)C(=O)C(C(N)=O)=C(O)[C@@H](N(C)C)[C@@H]3[C@@H](O)[C@@H]21 [doxycycline]
- threshold concentration at which noticeable induction occurred [1]: 0.1 mg/L
- maximum magnitude of induction (luciferase) ([2]; cassettes carrying at least one MAR element, Doxy 5 mg/l): 50 fold
- maximum magnitude of induction (luciferase) ([2]; cassettes without MAR element, Doxy 5 mg/l): 80 fold
- maximum induction (luciferase) ([2]; pACAG085 (TripleX/LUC), Doxy 5 mg/l, leaf disks, FIG. 10): 83 fold
- highest induction in some lines (luciferase) ([2]; pACAG113 and pACAG085 plants, FIG. 9): 100 fold
- average induction of the reporter (luciferase) ([2]; pACAG113 and pACAG085 plants, leaf disks, FIG. 9): 30 to 40 fold
- magnitude of induction for several lines (luciferase) ([2]; pACAG113 cassette ((OCS)3TripleXmin/LUC), Doxy 5 mg/l, leaf disks, FIG. 10): higher than 100 fold
- average induction of the reporter (luciferase) ([2]; the other three cassettes with or without MAR, FIG. 13): 30 to 40 fold
- highest induction in some lines (luciferase) ([2]; the other three cassettes, FIG. 13): 100 fold
- plant injury in spray test [3]: caused some injury and stunted growth of plants
